From patent US10000454B2, “Antidiabetic tricyclic compounds” (Merck Sharp & Dohme Corp., priority 2014, dated 2018)

How the values were obtained:
Human GPR40 [1] = target: T1, Human GPR40 (Homo sapiens, UniProt O14842); experiment: FLIPR assay, agonist-induced calcium mobilization; format: cell-based; parameters: expressed in transfected cells; settings: GPR40/CHO NFAT BLA cells
Experimental: (§1) Human and mouse GPR40 stable cell-lines were generated in CHO cells stably expressing NFAT BLA (Beta-lactamase). A human GPR40 stable cell-line was generated in HER cells stably expressing the aequorin expressing reporter. The expression plasmids were transfected using lipofectamine (Life Technologies) following manufacturer's instructions. Stable cell-lines were generated following drug selection.
FLIPR (Fluorimetric Imaging Plate Reader, Molecular Devices) assays were performed to measure agonist-induced calcium mobilization of the stable clones. For the FLIPR assay, one day before assay, GPR40/CHO NFAT BLA cells were seeded into black-wall-clear-bottom 384-well plates (Costar) at 1.4×10e4 cells/20 μL medium/well. The cells were incubated with 20 μl/well of the assay buffer (HMS, 0.1% BSA, 20 mM HEPES, 2.5 mM probenecid, pH 7.4) containing 8 μM fluo-4, AM, 0.08% pluronic acid at room temperature for 100 minutes. Fluorescence output was measured using FLIPR. Compounds were dissolved in DMSO and diluted to desired concentrations with assay buffer. 13.3 μL/well of compound solution was added.

Human GPR40 [2] = target: T1, Human GPR40; experiment: Inositol Phosphate Turnover (IP1) Assay; format: cell-based; parameters: expressed in transfected cells; host or cells: HEK cells (stably expressing the aequorin reporter); settings: HEK cells stably expressing human GPR40, CisBio IP-One kit
Experimental: as §1
The assay is performed in 384-well format. HEK cells stably expressing human GPR40 are plated at 15,000 cells per well in growth medium (DMEM/10% fetal calf serum). Cell plates are then incubated 16 hours at 37 degrees in a 5% CO2 incubator.
Measurement of Inositol Phosphate Turnover (IP1) is performed using the CisBio IP-One kit (Part number 62IPAPEB). After the 16 hour incubation, the cells are washed with HEPES buffer and 10 ul of stimulation buffer (prepared as described in the kit) is added to each well. In a separate plate, compounds are diluted in DMSO (400-fold over the final concentration in the assay well) and 25 nl is acoustically transferred to the appropriate well in the assay cell plate. The plates are then incubated for 60 minutes at 37 degrees. 10 ul of detection buffer (also prepared as described in the IP-One kit) is added to each well and the plates are incubated for 60 minutes in the dark. The plates are then read in a Perkin Elmer EnVision or equivalent reader able to measure FRET. Fluorescent ratio of emission at 665 and 620 nm is then converted to IP1 concentration by back calculating from an IP1 standard curve prepared at the time of the assay.

T1 sequence (O14842 whole entry): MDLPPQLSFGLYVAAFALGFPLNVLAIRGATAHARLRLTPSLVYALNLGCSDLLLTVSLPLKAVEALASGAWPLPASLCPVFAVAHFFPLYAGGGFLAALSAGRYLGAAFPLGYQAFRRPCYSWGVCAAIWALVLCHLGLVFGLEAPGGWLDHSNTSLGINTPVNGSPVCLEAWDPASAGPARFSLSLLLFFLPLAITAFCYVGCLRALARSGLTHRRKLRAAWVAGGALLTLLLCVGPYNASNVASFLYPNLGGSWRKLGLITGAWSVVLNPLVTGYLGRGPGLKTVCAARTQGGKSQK

| EC50 (Human GPR40 [1]) | Compound | EC50 (Human GPR40 [2]) |
| --- | --- | --- |
| 11.9 nM | CC1(C)CC(c2ccccc2C(F)(F)F)c2cc(COc3cc4c(cn3)[C@H]3[C@@H](C4)[C@@H]3C(=O)O)c(F)cc21 (single isomer, unassigned) [Example 22] | 12.5 nM |
| 19.9 nM | CC1(C)CC(c2ccccc2C(F)(F)F)c2cc(COc3cc4c(cn3)[C@H]3[C@@H](C4)[C@@H]3C(=O)O)c(F)cc21 (single isomer, unassigned) [Example 23] | 16.6 nM |
| – | O=C(O)[C@H]1[C@@H]2Cc3cc(OCc4cc5c(cc4F)C(n4cccn4)CC5c4ccccc4C(F)(F)F)ncc3[C@@H]21 (single isomer, unassigned) [Example 57] | 1.78 nM |
| – | O=C(O)[C@H]1[C@@H]2Cc3cc(OCc4cc5c(cc4F)C(n4cccn4)CC5c4ccccc4C(F)(F)F)ncc3[C@@H]21 (single isomer, unassigned) [Example 58] | 818 nM |
| – | O=C(O)[C@H]1[C@@H]2Cc3cc(OCc4cc5c(cc4F)CCOC5c4ccccc4C(F)(F)F)ncc3[C@@H]21 (single isomer, unassigned) [Example 60] | 10.8 nM |
| – | O=C(O)[C@H]1[C@@H]2Cc3cc(OCc4cccc5c4CCC5c4ccccc4C(F)(F)F)ncc3[C@@H]21 (single isomer, unassigned) [Example 64] | 154 nM |
| – | O=C(O)[C@H]1[C@@H]2Cc3cc(OCc4cccc5c4CCC5c4ccccc4C(F)(F)F)ncc3[C@@H]21 (single isomer, unassigned) [Example 65] | 124 nM |
| 1.51 nM | O=C(O)[C@H]1[C@@H]2Cc3cc(OCc4cc5c(cc4F)C(F)(F)CC5c4ccccc4C(F)(F)F)ncc3[C@@H]21 (single isomer, unassigned) [Example 69] | 8.85 nM |
| 5.99 nM | O=C(O)[C@H]1[C@@H]2Cc3cc(OCc4cc5c(cc4F)C(F)(F)CC5c4ccccc4C(F)(F)F)ncc3[C@@H]21 (single isomer, unassigned) [Example 70] | 15.8 nM |
| 5.25 nM | CC1(C)CNC(c2ccccc2C(F)(F)F)c2cc(COc3cc4c(cn3)[C@H]3[C@@H](C4)[C@@H]3C(=O)O)c(F)cc21 (single isomer, unassigned) [Example 72] | 5.13 nM |
| – | CC1(C)CC(c2ccccc2C(F)(F)F)c2cc(COc3cc4c(cn3)[C@@]3(C)[C@@H](C4)[C@@H]3C(=O)O)c(F)cc21 (single isomer, unassigned) [Example 75] | 157 nM |
| – | O=C(O)[C@H]1[C@@H]2Cc3cc(OCc4cc5c(cc4F)CCC5c4ccccc4C(F)(F)F)ncc3[C@@H]21 (stereo partly drawn) [Example 20, (5aR,6S,6aS)-3-((6-fluoro-3-(2-(trifluoromethyl)phenyl)-2,3-dihydro-1H-inden-5-yl)methoxy)-5,5a,6,6a-tetrahydrocyclopropa[4,5]cyclopenta[1,2-c]pyridine-6-carboxylic acid] | 10.3 nM |
| – | CC1(C)CC(c2ccccc2C(F)(F)F)c2cc(COc3cc4c(cn3)[C@@H]3[C@@H](C(=O)O)[C@@H]3C4(F)F)c(F)cc21 (stereo partly drawn) [Example 24, (5aR,6R,6aR)-5,5-difluoro-3-((6-fluoro-1,1-dimethyl-3-(2-(trifluoromethyl)phenyl)-2,3-dihydro-1H-inden-5-yl)methoxy)-5,5a,6,6a-tetrahydrocyclopropa[4,5]cyclopenta[1,2-c]pyridine-6-carboxylic acid] | 53 nM |
| – | CC1(C)OC(c2ccccc2C(F)(F)F)c2cc(COc3cc4c(cn3)[C@H]3[C@@H](C4)[C@@H]3C(=O)O)c(F)cc21 (stereo partly drawn) [Example 41, (5aR,6S,6aS)-3-((6-fluoro-1,1-dimethyl-3-(2-(trifluoromethyl)phenyl)-1,3-dihydroisobenzofuran-5-yl)methoxy)-5,5a,6,6a-tetrahydrocyclopropa[4,5]cyclopenta[1,2-c]pyridine-6-carboxylic acid] | 1.99 nM |
| – | COc1ccc(F)c(C2CC(C)(C)c3cc(F)c(COc4cc5c(cn4)[C@H]4[C@@H](C5)[C@@H]4C(=O)O)cc32)c1 (stereo partly drawn) [Example 45, (5aR,6S,6aS)-3-((6-fluoro-3-(2-fluoro-5-methoxyhenyl)-1,1-dimethyl-2,3-dihydro-1H-inden-5-yl)methoxy)-5,5a,6,6a-tetrahydro-cyclopropa[4,5]cyclopenta [1,2-c]pyridine-6-carboxylic acid] | 223 nM |
| – | CC1(C)CCN(c2ccccc2C(F)(F)F)c2c1ccc(COc1cc3c(cn1)[C@H]1[C@@H](C3)[C@@H]1C(=O)O)c2F [Example 52, (5aR,6S,6aS)-3-((8-fluoro-4,4-dimethyl-1-(2-(trifluoromethyl)phenyl)-1,2,3,4-tetrahydroquinolin-7-yl)methoxy)-5,5a,6,6a-tetrahydrocyclopropa[4,5]cyclopenta[1,2-c]pyridine-6-carboxylic acid] | 29.7 nM |
| – | COc1ccc(F)c(N2CC(C)(C)c3cc(F)c(COc4cc5c(cn4)[C@H]4[C@@H](C5)[C@@H]4C(=O)O)cc32)c1 [Example 56, (5aR,6S,6aS)-3-((5-fluoro-1-(2-fluoro-5-methoxyphenyl)-3,3-dimethylindolin-6-yl)methoxy)-5,5a,6,6a-tetrahydrocyclopropa[4,5]cyclopenta[1,2-c]pyridine-6-carboxylic acid] | 43.8 nM |
| – | O=C(O)[C@H]1[C@@H]2Cc3cc(OCc4cc5c(cc4F)CCOC5c4ccccc4C(F)(F)F)ncc3[C@@H]21 (some centres unmarked) [Example 59] | 97.3 nM |
| – | O=C(O)[C@H]1[C@@H]2Cc3cc(OCc4cc5c(-c6ccccc6C(F)(F)F)cn(-c6ccccc6)c5cc4F)ncc3[C@@H]21 [Example 63, (5aR,6S,6aS)-3-((6-fluoro-1-phenyl-3-(2-(trifluoromethyl)phenyl)-1H-indol-5-yl)methoxy)-5,5a,6,6a-tetrahydrocyclopropa[4,5]cyclopenta[1,2-c]pyridine-6-carboxylic acid] | 28.2 nM |
| – | CC1(C)CC(C)(C)c2cc(COc3cc4c(cn3)[C@H]3[C@@H](C4)[C@@H]3C(=O)O)c(F)cc21 [Example 76, (5aR,6S,6aS)-3-((6-fluoro-1,1,3,3-tetramethyl-2,3-dihydro-1H-inden-5-yl)methoxy)-5,5a,6,6a-tetrahydrocyclopropa[4,5]cyclopenta[1,2-c]pyridine-6-carboxylic acid] | 17.3 nM |
| – | O=C(O)[C@H]1[C@@H]2Cc3cc(OCc4cc5c(cnn5-c5ccccc5C(F)(F)F)cc4F)ncc3[C@@H]21 [Example 77, (5aR,6S,6aS)-3-((5-fluoro-1-(2-(trifluoromethyl)phenyl)-1H-indazol-6-yl)methoxy)-5,5a,6,6a-tetrahydrocyclopropa[4,5]cyclopenta[1,2-c]pyridine-6-carboxylic acid] | 7.08 nM |
| – | O=C(O)[C@H]1[C@@H]2Cc3cc(OCc4cc5c(ccn5Cc5ccccc5C(F)(F)F)cc4F)ncc3[C@@H]21 [Example 78, (5aR,6S,6aS)-3-((5-fluoro-1-(2-(trifluoromethyl)benzyl)-1H-indol-6-yl)methoxy)-5,5a,6,6a-tetrahydrocyclopropa[4,5]cyclopenta[12-c]pyridine-6-carboxylic acid] | 195 nM |
| – | CN(C)[C@H]1C[C@H](c2ccccc2C(F)(F)F)c2cc(COc3cc4c(cn3)[C@H]3[C@@H](C4)[C@@H]3C(=O)O)c(F)cc21 [Example 79, (5aR,6S,6aS)-3-(((1S,3S)-1-(dimethylamino)-6-fluoro-3-(2-(trifluoromethyl)phenyl)-2,3-dihydro-1H-inden-5-yl)methoxy)-5,5a,6,6a-tetrahydrocyclopropa[4,5]cyclopenta[1,2-c]pyridine-6-carboxylic acid, or (5aR,6S,6aS)-3-(((1R,3R)-1-(dimethylamino)-6-fluoro-3-(2-(trifluoromethyl)phenyl)-2,3-dihydro-1H-inden-5-yl)methoxy)-5,5a,6,6a-tetrahydrocyclopropa[4,5]cyclopenta[1,2-c]pyridine-6-carboxylic acid] | 15.4 nM |

| Compound | EC50 (Human GPR40 [1]) | EC50 (Human GPR40 [2]) |
| --- | --- | --- |
| O=C(O)[C@H]1[C@@H]2Cc3cc(OCc4ccc5c(c4)C(c4ccccc4C(F)(F)F)CCC5)ncc3[C@@H]21 (single isomer, unassigned) [Example 42] | 17.6 nM | 9.87 nM |
| O=C(O)[C@H]1[C@@H]2Cc3cc(OCc4ccc5c(c4)C(c4ccccc4C(F)(F)F)CC54CC4)ncc3[C@@H]21 (stereo partly drawn) [Example 1, (5aR,6S,6aS)-3-((3′-(2-(trifluoromethyl)phenyl)-2′,3′-dihydrospiro[cyclopropane-1,1′-inden]-5′-yl)methoxy)-5,5a,6,6a-tetrahydrocyclopropa[4,5]cyclopenta[1,2-c]pyridine-6-carboxylic acid] | 32.6 nM | 11.4 nM |
